# From patent US10597388B2, “Pyridazinone herbicides” (FMC CORPORATION, priority 2014, dated 2020)
# Legend:
# Test in all cases: Test D controlled growth environment herbicide test, pre- and postemergence
# Assay type in all cases: in vivo
# [1] = test system: canarygrass (Phalaris minor)
# Summary of the method: (§1)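 Species sown in silt loam and sprayed preemergence, or grown in peat-based medium to 2–18 cm (1- to 4-leaf stage) and sprayed postemergence, with compounds in non-phytotoxic solvent plus surfactant. Visual injury scored versus controls after 14–21 d in a controlled environment, 0 (no effect) to 100 (complete control).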
# [2] = test system: lambsquarters (Chenopodium album)
# Summary of the method: as §1
# [3] = test system: foxtail, green (green foxtail, Setaria viridis)
# Summary of the method: as §1
# [4] = test system: ryegrass, Italian (Italian ryegrass, Lolium multiflorum)
# Summary of the method: as §1
# [5] = test system: windgrass (Apera spica-venti)
# Summary of the method: as §1
# [6] = test system: wheat, spring (spring wheat, Triticum aestivum)
# Summary of the method: as §1
# [7] = test system: field violet (Viola arvensis)
# Summary of the method: as §1
# [8] = test system: blackgrass (Alopecurus myosuroides)
# Summary of the method: as §1
# [9] = test system: chickweed (common chickweed, Stellaria media)
# Summary of the method: as §1
# [10] = test system: wheat, winter (winter wheat, Triticum aestivum)
# Summary of the method: as §1
# [11] = test system: kochia (Kochia scoparia)
# Summary of the method: as §1
# [12] = test system: deadnettle (henbit deadnettle, Lamium amplexicaule)
# Summary of the method: as §1
# [13] = test system: Russian thistle (Salsola kali)
# Summary of the method: as §1
# [14] = Postemergence, 31 g ai/ha, scale 0 to 100 (0 no effect, 100 complete control)
# [15] = Postemergence, 125 g ai/ha, visual rating on scale 0 (no effect) to 100 (complete control), 14 to 21 d
# [16] = Postemergence, 250 g ai/ha, scale 0 to 100 (0 no effect, 100 complete control)
# [17] = Preemergence, 125 g ai/ha, scale 0 to 100 (0 no effect, 100 complete control)
# [18] = Preemergence, 250 g ai/ha, scale 0 to 100 (0 no effect, 100 complete control)
# [19] = postemergence, 62 g ai/ha, scale 0 to 100, 0 no effect, 100 complete control
compound,measurement,setting,value
CCC(=O)Oc1c(C)nn(C)c(=O)c1-c1c(C)sc2ccc(Cl)cc12 [Compound 109],Canarygrass plant response rating,[1]; [14],40
same,"Plant response rating, Canarygrass",[1]; [15],80
same,"Plant response rating, Canarygrass",[1]; [16],90
same,"Plant response rating (scale of 0 to 100), Canarygrass","[1]; Preemergence, 31 g ai/ha",35
same,"Plant response rating (scale of 0 to 100), Canarygrass","[1]; Preemergence, 62 g ai/ha",75
same,"Plant response rating, Canarygrass",[1]; [17],90
same,"Plant response rating, Canarygrass",[1]; [18],98
same,"Plant response rating, Canarygrass",[1]; [19],55
same,Lambsquarters plant response rating,[2]; [14],90
same,"Plant response rating, Lambsquarters",[2]; [15],95
same,"Plant response rating, Lambsquarters",[2]; [16],100
same,"Plant response rating (scale of 0 to 100), Lambsquarters","[2]; Preemergence, 31 g ai/ha",95
same,"Plant response rating (scale of 0 to 100), Lambsquarters","[2]; Preemergence, 62 g ai/ha",100
same,"Plant response rating, Lambsquarters",[2]; [17],100
same,"Plant response rating, Lambsquarters",[2]; [18],100
same,"Plant response rating, Lambsquarters",[2]; [19],95
same,"Foxtail, Green plant response rating",[3]; [14],55
same,"Plant response rating, Foxtail, Green",[3]; [15],75
same,"Plant response rating, Foxtail, Green",[3]; [16],85
same,"Plant response rating (scale of 0 to 100), Foxtail, Green","[3]; Preemergence, 31 g ai/ha",0
same,"Plant response rating (scale of 0 to 100), Foxtail, Green","[3]; Preemergence, 62 g ai/ha",65
same,"Plant response rating, Foxtail, Green",[3]; [17],75
same,"Plant response rating, Foxtail, Green",[3]; [18],95
same,"Plant response rating, Foxtail, Green",[3]; [19],65
same,"Ryegrass, Italian plant response rating",[4]; [14],85
same,"Plant response rating, Ryegrass, Italian",[4]; [15],95
same,"Plant response rating, Ryegrass, Italian",[4]; [16],100
same,"Plant response rating (scale of 0 to 100), Ryegrass, Italian","[4]; Preemergence, 31 g ai/ha",80
same,"Plant response rating (scale of 0 to 100), Ryegrass, Italian","[4]; Preemergence, 62 g ai/ha",95
same,"Plant response rating, Ryegrass, Italian",[4]; [17],100
same,"Plant response rating, Ryegrass, Italian",[4]; [18],100
same,"Plant response rating, Ryegrass, Italian",[4]; [19],85
same,Windgrass plant response rating,[5]; [14],60
same,"Plant response rating, Windgrass",[5]; [15],80
same,"Plant response rating, Windgrass",[5]; [16],90
same,"Plant response rating (scale of 0 to 100), Windgrass","[5]; Preemergence, 31 g ai/ha",55
same,"Plant response rating (scale of 0 to 100), Windgrass","[5]; Preemergence, 62 g ai/ha",60
same,"Plant response rating, Windgrass",[5]; [17],80
same,"Plant response rating, Windgrass",[5]; [18],100
same,"Plant response rating, Windgrass",[5]; [19],65
same,"Wheat, Spring plant response rating",[6]; [14],5
same,"Plant response rating, Wheat, Spring",[6]; [15],25
same,"Plant response rating, Wheat, Spring",[6]; [16],30
same,"Plant response rating (scale of 0 to 100), Wheat, Spring","[6]; Preemergence, 31 g ai/ha",0
same,"Plant response rating (scale of 0 to 100), Wheat, Spring","[6]; Preemergence, 62 g ai/ha",5
same,"Plant response rating, Wheat, Spring",[6]; [17],20
same,"Plant response rating, Wheat, Spring",[6]; [18],40
same,"Plant response rating, Wheat, Spring",[6]; [19],15
same,Field Violet plant response rating,[7]; [14],90
same,"Plant response rating, Field Violet",[7]; [15],100
same,"Plant response rating, Field Violet",[7]; [16],100
same,"Plant response rating (scale of 0 to 100), Field Violet","[7]; Preemergence, 31 g ai/ha",85
same,"Plant response rating (scale of 0 to 100), Field Violet","[7]; Preemergence, 62 g ai/ha",100
same,"Plant response rating, Field Violet",[7]; [17],100
same,"Plant response rating, Field Violet",[7]; [18],100
same,"Plant response rating, Field Violet",[7]; [19],95
same,Blackgrass plant response rating,[8]; [14],20
same,"Plant response rating, Blackgrass",[8]; [15],65
same,"Plant response rating, Blackgrass",[8]; [16],75
same,"Plant response rating (scale of 0 to 100), Blackgrass","[8]; Preemergence, 31 g ai/ha",25
same,"Plant response rating, Blackgrass","[8]; Preemergence, 62 g ai/ha, scale 0 to 100 (0 no effect, 100 complete control)",25
same,"Plant response rating, Blackgrass",[8]; [17],75
same,"Plant response rating, Blackgrass",[8]; [18],80
same,"Plant response rating, Blackgrass",[8]; [19],30
same,Chickweed plant response rating,[9]; [14],100
same,"Plant response rating, Chickweed",[9]; [15],100
same,"Plant response rating, Chickweed",[9]; [16],100
same,"Plant response rating (scale of 0 to 100), Chickweed","[9]; Preemergence, 31 g ai/ha",100
same,"Plant response rating (scale of 0 to 100), Chickweed","[9]; Preemergence, 62 g ai/ha",100
same,"Plant response rating, Chickweed",[9]; [17],100
same,"Plant response rating, Chickweed",[9]; [18],100
same,"Plant response rating, Chickweed",[9]; [19],100
same,"Wheat, Winter plant response rating",[10]; [14],10
same,"Plant response rating, Wheat, Winter",[10]; [15],25
same,"Plant response rating, Wheat, Winter",[10]; [16],35
same,"Plant response rating (scale of 0 to 100), Wheat, Winter","[10]; Preemergence, 31 g ai/ha",0
same,"Plant response rating (scale of 0 to 100), Wheat, Winter","[10]; Preemergence, 62 g ai/ha",0
same,"Plant response rating, Wheat, Winter",[10]; [17],5
same,"Plant response rating, Wheat, Winter",[10]; [18],20
same,"Plant response rating, Wheat, Winter",[10]; [19],15
same,Kochia plant response rating,[11]; [14],95
same,"Plant response rating, Kochia",[11]; [15],100
same,"Plant response rating, Kochia",[11]; [16],100
same,"Plant response rating (scale of 0 to 100), Kochia","[11]; Preemergence, 31 g ai/ha",20
same,"Plant response rating (scale of 0 to 100), Kochia","[11]; Preemergence, 62 g ai/ha",70
same,"Plant response rating, Kochia",[11]; [17],80
same,"Plant response rating, Kochia",[11]; [18],100
same,"Plant response rating, Kochia",[11]; [19],100
same,Deadnettle plant response rating,[12]; [14],20
same,"Plant response rating, Deadnettle",[12]; [15],70
same,"Plant response rating, Deadnettle",[12]; [16],95
same,"Plant response rating (scale of 0 to 100), Deadnettle","[12]; Preemergence, 31 g ai/ha",0
same,"Plant response rating (scale of 0 to 100), Deadnettle","[12]; Preemergence, 62 g ai/ha",60
same,"Plant response rating, Deadnettle",[12]; [17],80
same,"Plant response rating, Deadnettle",[12]; [18],95
same,"Plant response rating, Deadnettle",[12]; [19],50
same,Russian Thistle plant response rating,[13]; [14],60
same,"Plant response rating, Russian Thistle",[13]; [15],75
same,"Plant response rating, Russian Thistle",[13]; [16],90
same,"Plant response rating (scale of 0 to 100), Russian Thistle","[13]; Preemergence, 31 g ai/ha",0
same,"Plant response rating (scale of 0 to 100), Russian Thistle","[13]; Preemergence, 62 g ai/ha",20
same,"Plant response rating, Russian Thistle",[13]; [17],35
same,"Plant response rating, Russian Thistle",[13]; [18],50
same,"Plant response rating, Russian Thistle",[13]; [19],75
